Data as given in patent US5481021A, “Phenyl amidines derivatives useful as platelet aggregation inhibitors” (G. D. Searle & Co., priority 1994, dated 1996).
Counter-ions that a name gives are not always drawn.

Assays:
[1] = biological target: T1, fibrinogen binding to platelets (gpIIb/IIIa) (Homo sapiens, UniProt P05106+P08514); experiment: Fibrinogen Binding Assay (125I-fibrinogen binding to ADP-activated platelets); settings: ADP 10 μM, 125I-fibrinogen 0.3 μM, 40 min at 37° C., read-out: Human Fg binding IC50
T1 construct: endogenous in cells
Procedure: Fibrinogen binding was performed essentially as described by Plow et al., Blood 70, 110-115 (1987). Briefly, blood from humans who had not been given any antiplatelet drugs in the previous two weeks was collected into 1/10th volume of CCD buffer (100 mM sodium citrates, 136 mM glucose, pH 6.5). The blood was centrifuged for 3 min at 1000×g and platelet rich plasma was transferred to a plastic tube with a plastic pipet and placed on ice. After 15 minutes, 1/2 volume of ice cold CCD buffer was added and the sample was centrifuged at 900×g for 10 min at 2° C. The supernatant was decanted and the platelet pellet was gently resuspended in 1/2 the original volume of ice cold modified Tyrode's buffer (137 mM NaCl, 2.6 mM KCl, 12 mM NaHCO3, 5.5 mM glucose, 15 mM HEPES, 0.5% BSA, pH 7.4). After incubating for 30 minutes at 37° C., the platelet count was adjusted to 4×10^8 platelets/ml with modified Tyrode's buffer. To test samples (final concentration=1×10^8 platelets/ml) were added in sequence: ADP (10 μM), CaCl2 (2 mM), test compound, and ^125 I-fibrinogen (0.3 μM) to the aforesaid final concentrations in a volume of 200 μl. The samples were incubated for 40 min at 37° C. and 50 μl aliquots were centrifuged at 8,000×g through a 20% sucrose solution (400 μl). The tubes were quick frozen and the tips containing the platelet pellet were cut and assayed for bound ^125 I-fibrinogen by gamma scintillation counting. Specific binding was determined in each test by subtracting from the total binding the amount of ^125 I-fibrinogen bound in the presence of a 60-fold excess of unlabeled fibrinogen.

[2] = system: ex vivo collagen induced platelet aggregation; experiment: Inhibition of ex vivo collagen induced aggregation; format: in vivo, dog (Beagle); settings: dog, IV
Procedure: INHIBITION OF EX VIVO COLLAGEN INDUCED AGGREGATION BY COMPOUNDS OF THE INVENTION
PURPOSE--The purpose of this assay is to determine the effects of antiplatelet compounds on ex vivo collagen induced platelet aggregation when administered either intravenously or orally to dogs.
Pretreatment (control) blood samples are drawn from either conscious or anesthetized dogs (Beagles) and centrifuged to prepare platelet rich plasma (PRP). Aggregatory response to collagen is measured in an aggregometer and used as Control. Compounds are administered, either intragasterically (either by capsule or stomach tube or intravenously. Blood samples are drawn at predetermined intervals after compound administration, PRP prepared and aggregation to collagen determined. Compound inhibition of aggregation is determined by comparing the aggregation response after compound administration to the pretreatment response. The study is continued for a maximum of 24 hours or until the platelet aggregation returns to control levels. (If aggregation is still inhibited after 7 hours, a blood sample is drawn the following morning and tested.) Duration of activity is determined by the length of time platelet aggregation is inhibited after compound administration.

[3] = system: Platelet aggregation in dog PRP; experiment: In-Vitro Platelet Aggregation in PRP (ADP induced); format: cell-based; settings: Canis lupus familiaris; for IC50: ADP 50 μm, 37° C.; for inhibition at 10 µM: ADP, test concentration 1 × 10^-5
Procedure: In-Vitro Platelet Aggregation in PRP
(§1) Healthy male or female dogs were fasted for 8 hours prior to drawing blood; then 30 ml whole blood was collected using a butterfly needle and 30 cc plastic syringe with 3 ml of 0.129M buffered sodium citrate (3.8%). The syringe was rotated carefully as blood was drawn to mix the citrate. Platelet-rich plasma (PRP) was prepared by centrifugation at 975×g for 3.17 minutes at room temperature, allowing the centrifuge to coast to a stop without braking. The PRP was removed from the blood with a plastic pipette and placed in a plastic capped, 50 ml Corning conical sterile centrifuge tube which was held at room temperature. Platelet poor plasma (PPP) was prepared by centrifuging the remaining blood at 2000×g for 15 minutes at room temperature allowing the centrifuge to coast to a stop without braking. The PRP was adjusted with PPP to a count of 2-3×10^8 platelets per ml. 400 for 5-(p-cyanophenyl)pentanoic acid in Section C of Example 1.
as §1, with “400 μl of the PRP preparation and 50 μl of the compound to be tested or saline were preincubated” for “400”, “1 minute at 37° C.” for “5-(p-cyanophenyl)pentanoic acid”, “a BioData aggregometer (BioData, Horsham, Pa.). 50 μl” for “Section C”, “adenosine 5'diphosphate (ADP) (50 μm final concentration) was added to the cuvettes and the aggregation was monitored for 1 minute. All compounds are tested in duplicate. Results are calculated as follows:” for “Example 1.”
Percent of control=[(maximal OD minus initial OD of compound) divided by
(maximal OD minus initial OD of control saline)]×100. The %
inhibition=100-(percent of control).

[4] = Canine intravenous infusion model; format: in vivo

T1 sequence (P08514 32-887 limits assumed): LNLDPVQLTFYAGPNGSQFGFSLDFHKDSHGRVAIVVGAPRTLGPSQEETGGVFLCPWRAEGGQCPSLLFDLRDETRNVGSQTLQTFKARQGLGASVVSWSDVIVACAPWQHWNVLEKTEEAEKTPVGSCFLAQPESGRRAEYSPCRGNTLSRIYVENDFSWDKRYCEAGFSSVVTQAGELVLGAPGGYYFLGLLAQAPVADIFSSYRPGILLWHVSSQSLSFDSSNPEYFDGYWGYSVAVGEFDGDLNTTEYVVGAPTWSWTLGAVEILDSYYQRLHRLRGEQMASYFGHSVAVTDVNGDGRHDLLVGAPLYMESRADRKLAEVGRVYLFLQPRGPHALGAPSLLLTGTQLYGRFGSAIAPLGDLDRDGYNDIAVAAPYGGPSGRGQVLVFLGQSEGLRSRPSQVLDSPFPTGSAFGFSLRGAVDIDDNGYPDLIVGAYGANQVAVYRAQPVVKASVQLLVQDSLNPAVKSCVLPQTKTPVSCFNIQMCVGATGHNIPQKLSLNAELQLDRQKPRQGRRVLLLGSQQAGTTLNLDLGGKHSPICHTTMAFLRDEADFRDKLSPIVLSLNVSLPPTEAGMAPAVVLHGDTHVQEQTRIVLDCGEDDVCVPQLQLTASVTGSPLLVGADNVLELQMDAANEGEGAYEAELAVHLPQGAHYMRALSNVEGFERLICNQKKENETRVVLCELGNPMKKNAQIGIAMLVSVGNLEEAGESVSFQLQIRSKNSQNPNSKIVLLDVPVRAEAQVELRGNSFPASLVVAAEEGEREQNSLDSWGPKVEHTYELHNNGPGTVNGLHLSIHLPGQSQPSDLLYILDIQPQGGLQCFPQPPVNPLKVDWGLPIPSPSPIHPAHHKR
T1 sequence (P08514 891-1039 partner limits assumed): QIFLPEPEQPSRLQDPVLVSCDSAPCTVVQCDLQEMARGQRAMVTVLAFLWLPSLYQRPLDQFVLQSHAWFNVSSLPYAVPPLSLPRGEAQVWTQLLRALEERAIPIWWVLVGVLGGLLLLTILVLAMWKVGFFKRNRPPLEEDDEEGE
T1 sequence (P05106 27-788): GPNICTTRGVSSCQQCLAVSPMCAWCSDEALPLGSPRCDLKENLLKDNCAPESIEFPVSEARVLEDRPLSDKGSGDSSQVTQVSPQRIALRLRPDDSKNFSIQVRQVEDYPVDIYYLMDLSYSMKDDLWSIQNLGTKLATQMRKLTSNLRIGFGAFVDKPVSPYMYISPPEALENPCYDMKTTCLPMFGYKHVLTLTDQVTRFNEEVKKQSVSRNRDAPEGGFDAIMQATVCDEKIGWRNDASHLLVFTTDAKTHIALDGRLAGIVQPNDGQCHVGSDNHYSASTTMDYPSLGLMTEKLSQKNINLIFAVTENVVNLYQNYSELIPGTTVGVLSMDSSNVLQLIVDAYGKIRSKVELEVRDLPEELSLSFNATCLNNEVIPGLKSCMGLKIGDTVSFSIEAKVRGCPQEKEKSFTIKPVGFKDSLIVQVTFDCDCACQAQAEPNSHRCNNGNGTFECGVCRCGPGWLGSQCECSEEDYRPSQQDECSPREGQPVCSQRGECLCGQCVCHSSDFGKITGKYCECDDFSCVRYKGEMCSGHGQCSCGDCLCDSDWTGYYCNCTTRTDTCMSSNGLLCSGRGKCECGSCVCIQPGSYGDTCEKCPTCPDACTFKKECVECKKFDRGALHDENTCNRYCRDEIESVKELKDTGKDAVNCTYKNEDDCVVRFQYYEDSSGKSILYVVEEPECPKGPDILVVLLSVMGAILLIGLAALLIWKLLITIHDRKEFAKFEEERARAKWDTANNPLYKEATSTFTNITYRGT

| Compound | IC50 [1] [nM] | Ex-vivo collagen induced aggregation, Max % Inhibition ([2]; 0.005 mg/kg) [%] | Ex-vivo collagen induced aggregation, Max % Inhibition ([2]; 0.01 mg/kg) [%] | Ex-vivo collagen induced aggregation, Max % Inhibition ([2]; 0.1 mg/kg) [%] | IC50 [3] [nM] | inhibition at 10 µM [3] [%] | Ex-vivo collagen induced aggregation, Max % Inhibition ([2]; 0.003 mg/kg) [%] | Ex-vivo collagen induced aggregation, Max % Inhibition ([2]; 0.006 mg/kg) [%] | ED50 [4] [µg/kg/min] |
| --- | --- | --- | --- | --- | --- | --- | --- | --- | --- |
| N=C(N)c1ccc(C#CCCC(=O)N[C@@H](CC(=O)O)C(=O)N[C@@H](Cc2ccccc2)C(=O)O)cc1 [N-[5-[4-(aminoiminomethyl)phenyl]-1-oxo-4-pentynyl]-N-L-α-aspartyl-L-phenylalanine] | 6 | 29 | 83 | 100 | 90 | 100 | – | – | – |
| N=C(N)c1ccc(CCCCC(=O)N[C@@H](CC(=O)O)C(=O)N[C@@H](Cc2ccccc2)C(=O)O)cc1 [N-[N-[5-[4-aminoiminomethyl)phenyl-1-oxopentyl]-L-α-aspartyl]-L-phenylalanine, acetate salt] | 8.3 | – | – | – | 53 | 100 | 31 | 84 | – |
| N=C(N)c1ccc(/C=C/CCC(=O)N[C@@H](CC(=O)O)C(=O)N[C@@H](Cc2ccccc2)C(=O)O)cc1 [N-[5-[4-(aminoiminomethyl)phenyl]-1-oxo-4E-pentenyl]-N-L-α-aspartyl-L-phenylalanine] | 7 | – | – | – | 82 | 100 | – | – | – |
| N=C(N)c1ccc(CCCCC(=O)N[C@@H](CC(=O)O)C(=O)N[C@@H](Cc2ccccc2)C(=O)O)cc1 [N-[N-[5-[4-(aminoiminomethyl)phenyl]-1-oxopentyl]-L-α-aspartyl]-L-phenylalanine] | – | – | – | – | – | – | – | – | 0.32 |
